Results as given in patent US10898548B2, “Modulators of protein tyrosine phosphatase and uses thereof” (LEUVAS THERAPEUTICS, priority 2015, dated 2021).
Marks after values point to notes of the source that are not given here.

Columns and labels:
[1] = tested on: Hbb^th3/+ mice (β-thalassemia model); test: reactive oxygen species (ROS) levels, CM-H2DCFDA; assay type: in vivo, mouse; details: for mean ROS level in red cells: TAT-ICD 5 mg/kg i.p once every other day for 3 weeks
Protocol: Reactive oxygen species (ROS) are known to be increased in red blood cells in β-thalassemia and are thought to be important in the pathophysiology of the disease, leading to cumulative cell damage. The reactive oxygen species (ROS) levels from erythroid precursor populations was assessed using the General Oxidative Stress Indicator CM-H2DCFDA (Life Technologies, Carlsbad, Calif.) as described (Matte A. et al 2015 Antioxid. Redox Signal 23(16):1284-1297). […] Data are the mean ROS level.

[2] = body weight as a measure of toxicity; assay type: in vivo, mouse; details: Wild-type and Hbb^3th/+ mice; 5 mg/kg i.p once every other day for 3 weeks
Protocol: Wild-type and Hbb^3th/+ were treated with TAT-ICD at 5 mg/kg i.p once every other day for 3 weeks. […] Hematological parameters, red blood cell indices and reticulocyte counts were determined using standard procedures. Table 37 summarizes the effect of treatment of WT and HBB mice with TAT-ICD9 on key hematological parameters and red cell indices.

TAT-ICD: fusion recombinant protein SEQ ID 5: PTPRG intracellular domain aa 797-1445 fused to 13 aa TAT sequence
ROS levels in bone marrow erythroid precursor populations I-IV ([1]; Hbb mice, all four populations): decreased | mean ROS level in red cells ([1]; Hbb^th3/+ mice, Untreated 13.75): 9.73* | mean ROS level in red cells ([1]; Wild-type mice, Untreated 3.32): 2.79 | body weight as a measure of toxicity [2]: no changes were observed
